Seven compounds from ChEMBL document CHEMBL1150035, “Potent, non-peptidic oxytocin receptor antagonists from a natural source” (Bioorg Med Chem Lett, 1993) can be followed below.

pIC50: −log10 of the molar value. Bounds are passed on as bounds.

One experiment addresses T1, Oxytocin receptor (Rattus norvegicus, UniProt P70536).
T1 sequence (P70536 whole entry): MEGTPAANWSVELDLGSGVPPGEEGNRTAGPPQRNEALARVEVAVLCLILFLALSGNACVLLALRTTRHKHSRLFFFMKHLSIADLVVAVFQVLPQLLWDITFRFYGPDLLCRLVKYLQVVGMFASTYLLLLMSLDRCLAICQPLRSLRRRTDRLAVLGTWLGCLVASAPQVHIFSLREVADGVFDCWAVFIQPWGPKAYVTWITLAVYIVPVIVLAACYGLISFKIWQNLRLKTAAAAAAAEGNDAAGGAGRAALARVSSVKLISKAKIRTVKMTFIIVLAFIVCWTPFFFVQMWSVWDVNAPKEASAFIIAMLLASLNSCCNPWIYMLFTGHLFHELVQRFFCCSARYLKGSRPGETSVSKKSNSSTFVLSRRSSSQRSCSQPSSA
Description: Compound was tested for its ability to inhibit binding of Oxytocin to its Oxytocin receptor in rat uterine tissue.

Experiment [1] in a line: Compound was tested for its ability to inhibit binding of arginine vasopressin to Vasopressin receptor (V1 subtype).

In turn, `COc1c([C@H](CC(C)C)OC(C)=O)ccc2c1C(=O)Oc1cc(C)cc(C=O)c1O2` gave a pIC50 at Oxytocin receptor of less than 4.00.

Regarding `COc1c([C@@H](O)CC(C)C)ccc2c1C(=O)OCc1cc(C)cc(O)c1O2` [PENICILLIDE], the pIC50 on Oxytocin receptor was 4.17.

On Oxytocin receptor, `COc1c([C@H](CC(C)C)OC(C)=O)ccc2c1C(=O)OCc1cc(C)cc(OC(C)=O)c1O2` had a negative logarithm of the IC50 (pIC50) of 5.30.

Consider `COc1c([C@H](CC(C)C)OC(C)=O)ccc2c1C(=O)OCc1cc(C)cc(O)c1O2`, for which the pIC50 is 5.08 at Oxytocin receptor and less than 4.00 in experiment [1].

At Oxytocin receptor, `COc1cc(C)cc2c1Oc1ccc([C@@H](O)CC(C)C)c(OC)c1C(=O)OC2` had a pIC50 of less than 4.00.

For `COc1cc(C)cc2c1Oc1ccc([C@H](CC(C)C)OC(C)=O)c(OC)c1C(=O)OC2`, the pIC50 at Oxytocin receptor is 4.68; in experiment [1], less than 4.00.

On Oxytocin receptor, `COc1c(C(=O)CC(C)C)ccc2c1C(=O)OCc1cc(C)cc(O)c1O2` had a pIC50 of less than 4.00.
